From patent publication US20240197708A1, “TREATMENT OF PRODROMAL HUNTINGTON DISEASE” (Prilenia Neurotherapeutics Ltd., priority 2021, published 2024)

Key:
early-stage HD patients = conditions: disclosed in U.S. Pat. Nos. 10,322,119 and 11,207,310; cited from earlier work
prodromal HD subjects = conditions: 45 mg bid
Experimental: The efficacy of pridopidine for treating prodromal HD is evaluated in a randomized, double-blind, placebo-controlled trial.

[1] = CSF and/or plasma, 52 weeks, vs placebo

In the case of `CCCN1CCC(c2cccc(S(C)(=O)=O)c2)CC1` [Pridopidine, 4-[3-(methylsulfonyl)phenyl]-1-propyl-piperidine], the functional capacity (early-stage HD patients) is listed as “maintains, improves or lessens the decline of functional capacity”, the “DMN and functional connectivity” value (prodromal HD subjects; 52 weeks, vs placebo) is listed as “maintenance of or less worsening” and the PBA-s apathy score (prodromal HD subjects; 52 weeks, vs placebo) is listed as “improvement or less worsening compared to placebo”. The PBA-s total score (prodromal HD subjects; 52 weeks, vs placebo) was “improvement or less worsening compared to placebo”, the “cognitive assessments by the HD-CAB battery of tests” value (prodromal HD subjects; 52 weeks, vs placebo) was “improves or maintains or show less worsening compared to placebo” and the “cognitive assessments by the SDMT” value (prodromal HD subjects; 52 weeks, vs placebo) was “improves, maintains or shows less decline”. The cortical thickness (prodromal HD subjects; 52 weeks, vs placebo) was “no decrease or less decrease compared to placebo”, the “motor measure Q-Motor finger tapping” value (prodromal HD subjects; 52 weeks, vs placebo) was “maintenance, improvement or less decline compared to placebo” and the “motor measure TMS” value (prodromal HD subjects; 52 weeks, vs placebo) was “maintenance, improvement or less decline compared to placebo”. For the same compound, the total brain volume (prodromal HD subjects; 52 weeks, vs placebo) was “no decrease or less decrease compared to placebo”, the ventricular volume (prodromal HD subjects; 52 weeks, vs placebo) was “decrease or maintenance of ventricular volume or a smaller increase in ventricular volume compared to placebo” and the “volume of the striatal structures caudate and putamen” value (prodromal HD subjects; 52 weeks, vs placebo) was “no decrease or less decrease compared to placebo”. For the same compound, the “level of fluid biomarker NfL” value (prodromal HD subjects; [1]) was “reduction or maintenance”, the “level of fluid biomarker phospho-tau” value (prodromal HD subjects; [1]) was “reduction or maintenance” and the “level of fluid biomarker proenkephalin” value (prodromal HD subjects; [1]) was “reduction or maintenance”. For the same compound, the “progression to manifest HD” value (prodromal HD subjects; over the course of the trial (52 weeks), vs placebo group) was “less participants in the pridopidine group progressed to manifest HD compared to the placebo group”.
